Like-named read-outs stand apart in the source and are kept apart here. Non-standard residues stand in square brackets, D forms with d. Residues, ends and D or L forms follow the SMILES beside them. Ala(4-thiazolyl) = N[C@@H](Cc1cscn1)C(=O)O; NMePhe(4-F) = CN[C@@H](Cc1ccc(F)cc1)C(=O)O; Phe(4-Cl) = N[C@@H](Cc1ccc(Cl)cc1)C(=O)O; Phe(4-F) = N[C@@H](Cc1ccc(F)cc1)C(=O)O; NMeF = CN[C@@H](Cc1ccccc1)C(=O)O; dNMeV = CN[C@@H](C(=O)O)C(C)C; Tle = CC(C)(C)[C@H](N)C(=O)O; hSer = N[C@@H](CCO)C(=O)O; NMeA = CN[C@@H](C)C(=O)O; dNMeA = CN[C@H](C)C(=O)O; Nme = COCCNCC(=O)O; Sar = CNCC(=O)O
Legend:
Assay type in all cases: binding
Human MDM2 (HDM2) 1-116 [1] = target: T1, Human MDM2 (HDM2) 1-116 (Homo sapiens, UniProt Q00987); test: Fluorescence polarization assay, MDM2/p53 (Table 3)
T1 construct: Human MDM2 (HDM2) 1-116
T1 sequence (Q00987 1-116): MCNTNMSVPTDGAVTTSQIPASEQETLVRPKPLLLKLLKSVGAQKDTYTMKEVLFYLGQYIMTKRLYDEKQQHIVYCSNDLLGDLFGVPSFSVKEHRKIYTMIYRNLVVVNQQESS

Human MDM2 (HDM2) 1-116 [2] = target: T1, Human MDM2 (HDM2) 1-116; test: Fluorescence polarization assay 2, MDM2 (Table 4)
Experimental: (§1) Compounds dissolved in DMSO were pin transferred (˜100-200 nL) to the 384 well plate containing the MDM2/p53 solution. After incubation for 60 minutes, the fluorescence polarization was read on a Molecular Devices SpectraMax plate reader equipped with a Fluorescein FP cartridge. In addition to probe alone (positive control) and probe/MDM2 (negative control), a titration of linear p53(18-26) was included on every plate as an additional control. IC50 values were fit using either Prism or Collaborative Drug Discovery.

Human MDM4 (HDM4) 1-114 = target: T2, Human MDM4 (HDM4) 1-114 (Homo sapiens, UniProt O15151); test: Fluorescence polarization assay 2, MDM4 (Table 4)
T2 construct: Human MDM4 (HDM4) 1-114
T2 sequence (O15151 1-114): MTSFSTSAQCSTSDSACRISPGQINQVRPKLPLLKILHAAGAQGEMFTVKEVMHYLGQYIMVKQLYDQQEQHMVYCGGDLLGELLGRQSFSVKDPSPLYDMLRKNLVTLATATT
Experimental: as §1, with “MDM4/p53” for “MDM2/p53”, “probe/MDM4” for “probe/MDM2”

[3] = Table 4, fluorescence polarization, read-out: MDM2 IC50
[4] = Table 4, fluorescence polarization, read-out: MDM4 IC50

Row | SMILES | IC50 (Human MDM2 (HDM2) 1-116 [2]; [3]) [nM] | IC50 (Human MDM4 (HDM4) 1-114; [4]) [nM] | IC50 (Human MDM2 (HDM2) 1-116 [1]) [nM] | IC50 (Human MDM2 (HDM2) 1-116 [2]) [nM] | IC50 (Human MDM4 (HDM4) 1-114) [nM]
1 | COCCN1CC(=O)N(C)[C@@H](C)C(=O)N[C@@H](Cc2ccc(F)cc2)C(=O)N(C)[C@@H](C)C(=O)N[C@@H](Cc2ccc(Cl)cc2)C(=O)N(C)[C@H](C(C)C)C(=O)N2CCC[C@H]2C(=O)N[C@@H](Cc2ccccc2)C(=O)N[C@@H](C(C)(C)C)C(=O)N[C@@H](Cc2ccc(O)cc2)C1=O [Compound 31, [H]Oc1ccc(C[C@@H]2NC(=O)[C@@H](NC(=O)[C@H](Cc3ccccc3)NC(=O)[C@@H]3CCCN3C(=O)[C@@H](C(C)C)N(C)C(=O)[C@H](Cc3ccc(Cl)cc3)NC(=O)[C@H](C)N(C)C(=O)[C@H](Cc3ccc(F)cc3)NC(=O)[C@H](C)N(C)C(=O)CN(CCOC)C2=O)C(C)(C)C)cc1] (cyclo(F[Tle]Y[Nme][NMeA][Phe(4-F)][NMeA][Phe(4-Cl)][dNMeV]P)) |  |  | ≥ 5000 |  | 
2 | COCC[C@@H]1NC(=O)[C@H]2CCCN2C(=O)[C@H](Cc2ccccc2)N(C)C(=O)[C@H](Cc2ccc(Cl)cc2)NC(=O)[C@H](C(C)(C)C)NC(=O)[C@H](Cc2ccc(F)cc2)NC(=O)CN(CCOC)C(=O)[C@@H](C)N(C)C(=O)[C@H](Cc2ccc(O)cc2)NC(=O)[C@H](C)N(C)C1=O [Compound 32, [H]Oc1ccc(C[C@@H]2NC(=O)[C@H](C)N(C)C(=O)[C@H](CCOC)NC(=O)[C@H]3CCCN3C(=O)[C@H](Cc3ccccc3)N(C)C(=O)[C@H](Cc3ccc(Cl)cc3)NC(=O)[C@@H](NC(=O)[C@H](Cc3ccc(F)cc3)NC(=O)CN(CCOC)C(=O)[C@@H](C)N(C)C2=O)C(C)(C)C)cc1] (cyclo([NMeA]Y[dNMeA][Nme][Phe(4-F)][Tle][Phe(4-Cl)][NMeF][dP][hSer](Me))) | < 25 | > 150 |  |  | 
3 | COCC[C@@H]1NC(=O)[C@H]2CCCN2C(=O)[C@H](Cc2ccccc2)N(C)C(=O)[C@H](Cc2ccc(Cl)cc2)NC(=O)CN(C)C(=O)[C@H](Cc2ccc(F)cc2)NC(=O)[C@H](C)N(C)C(=O)[C@@H](C)N(C)C(=O)[C@H](Cc2cscn2)NC(=O)[C@H](C)N(C)C1=O [Compound 33, COCC[C@@H]1NC(=O)[C@H]2CCCN2C(=O)[C@H](CC2=CC=CC=C2)N(C)C(=O)[C@H](CC2=CC=C(Cl)C=C2)NC(=O)CN(C)C(=O)[C@H](CC2=CC=C(F)C=C2)NC(=O)[C@H](C)N(C)C(=O)[C@@H](C)N(C)C(=O)[C@H](CC2=CSC=N2)NC(=O)[C@H](C)N(C)C1=O] (cyclo([Ala(4-thiazolyl)][dNMeA][NMeA][Phe(4-F)][Sar][Phe(4-Cl)][NMeF][dP][hSer](Me)[NMeA])) |  |  |  | < 25 | 50 to 100
4 | COCC[C@@H]1NC(=O)[C@H]2CCCN2C(=O)[C@H](Cc2ccc(F)cc2)N(C)C(=O)[C@H](Cc2ccc(Cl)cc2)NC(=O)[C@H](C(C)(C)C)NC(=O)[C@H](Cc2ccc(F)cc2)NC(=O)CN(CCOC)C(=O)[C@@H](C)N(C)C(=O)[C@H](Cc2cscn2)NC(=O)[C@H](C)N(C)C1=O [Compound 37, COCC[C@@H]1NC(=O)[C@H]2CCCN2C(=O)[C@H](Cc2ccc(F)cc2)N(C)C(=O)[C@H](CC2=CC=C(Cl)C=C2)NC(=O)[C@@H](NC(=O)[C@H](Cc2ccc(F)cc2)NC(=O)CN(CCOC)C(=O)[C@@H](C)N(C)C(=O)[C@H](CC2=CSC=N2)NC(=O)[C@H](C)N(C)C1=O)C(C)(C)C] (cyclo([Ala(4-thiazolyl)][dNMeA][Nme][Phe(4-F)][Tle][Phe(4-Cl)][NMePhe(4-F)][dP][hSer](Me)[NMeA])) | 25 to 50 | 50 to 100 |  |  | 
5 | COCC[C@@H]1NC(=O)[C@H]2CCCN2C(=O)[C@H](Cc2ccccc2)N(C)C(=O)[C@H](Cc2ccc(Cl)cc2)NC(=O)[C@H](C)N(C)C(=O)[C@H](Cc2ccc(F)cc2)NC(=O)CN(CCOC)C(=O)[C@@H](C)N(C)C(=O)[C@H](Cc2cscn2)NC(=O)[C@H](C)N(C)C1=O [Compound 40, COCC[C@@H]1NC(=O)[C@H]2CCCN2C(=O)[C@H](CC2=CC=CC=C2)N(C)C(=O)[C@H](CC2=CC=C(Cl)C=C2)NC(=O)[C@H](C)N(C)C(=O)[C@H](CC2=CC=C(F)C=C2)NC(=O)CN(CCOC)C(=O)[C@@H](C)N(C)C(=O)[C@H](CC2=CSC=N2)NC(=O)[C@H](C)N(C)C1=O] (cyclo([Ala(4-thiazolyl)][dNMeA][Nme][Phe(4-F)][NMeA][Phe(4-Cl)][NMeF][dP][hSer](Me)[NMeA])) | 25 to 50 | > 150 |  |  | 
6 | COCC[C@@H]1NC(=O)[C@H]2CCCN2C(=O)[C@H](Cc2ccccc2)N(C)C(=O)[C@H](Cc2ccc(Cl)cc2)NC(=O)[C@H](C(C)C)NC(=O)[C@H](Cc2ccc(F)cc2)NC(=O)CN(CCOC)C(=O)[C@@H](C)N(C)C(=O)[C@H](Cc2cscn2)NC(=O)[C@H](C)N(C)C1=O [Compound 41, COCC[C@@H]1NC(=O)[C@H]2CCCN2C(=O)[C@H](CC2=CC=CC=C2)N(C)C(=O)[C@H](CC2=CC=C(Cl)C=C2)NC(=O)[C@@H](NC(=O)[C@H](CC2=CC=C(F)C=C2)NC(=O)CN(CCOC)C(=O)[C@@H](C)N(C)C(=O)[C@H](CC2=CSC=N2)NC(=O)[C@H](C)N(C)C1=O)C(C)C] (cyclo([Ala(4-thiazolyl)][dNMeA][Nme][Phe(4-F)]V[Phe(4-Cl)][NMeF][dP][hSer](Me)[NMeA])) | < 25 | < 50 |  |  | 

The next lines start with results.

Row | IC50 (Human MDM2 (HDM2) 1-116 [2]; [3]) [nM] | IC50 (Human MDM4 (HDM4) 1-114; [4]) [nM] | SMILES | IC50 (Human MDM2 (HDM2) 1-116 [1]) [nM] | IC50 (Human MDM2 (HDM2) 1-116 [2]) [nM] | IC50 (Human MDM4 (HDM4) 1-114) [nM]
7 | 25 to 50 | > 150 | COCC[C@@H]1NC(=O)[C@H]2CCCN2C(=O)[C@H](Cc2ccccc2)N(C)C(=O)[C@H](Cc2ccc(Cl)cc2)NC(=O)[C@H](C)N(C)C(=O)[C@H](Cc2ccc(F)cc2)NC(=O)[C@H](C)N(C)C(=O)[C@@H](C)N(C)C(=O)[C@H](Cc2cscn2)NC(=O)[C@H](C)N(C)C1=O [Compound 34, COCC[C@@H]1NC(=O)[C@H]2CCCN2C(=O)[C@H](CC2=CC=CC=C2)N(C)C(=O)[C@H](CC2=CC=C(Cl)C=C2)NC(=O)[C@H](C)N(C)C(=O)[C@H](CC2=CC=C(F)C=C2)NC(=O)[C@H](C)N(C)C(=O)[C@@H](C)N(C)C(=O)C@H](CC2=CSC=N2)NC(=O)[C@H](C)N(C)C1=O] (cyclo([Ala(4-thiazolyl)][dNMeA][NMeA][Phe(4-F)][NMeA][Phe(4-Cl)][NMeF][dP][hSer](Me)[NMeA])) |  |  | 
8 | < 25 | 50 to 100 | COCC[C@@H]1NC(=O)[C@H]2CCCN2C(=O)[C@H](Cc2ccccc2)N(C)C(=O)[C@H](Cc2ccc(Cl)cc2)NC(=O)[C@H](C(C)(C)C)NC(=O)[C@H](Cc2ccc(F)cc2)NC(=O)[C@H](C)N(C)C(=O)[C@@H](C)N(C)C(=O)[C@H](Cc2cscn2)NC(=O)[C@H](C)N(C)C1=O [Compound 36, COCC[C@@H]1NC(=O)[C@H]2CCCN2C(=O)[C@H](Cc2ccccc2)N(C)C(=O)[C@H](Cc2ccc(Cl)cc2)NC(=O)[C@@H](NC(=O)[C@H](Cc2ccc(F)cc2)NC(=O)[C@H](C)N(C)C(=O)[C@@H](C)N(C)C(=O)[C@H](CC2=CSC=N2)NC(=O)[C@H](C)N(C)C1=O)C(C)(C)C] (cyclo([Ala(4-thiazolyl)][dNMeA][NMeA][Phe(4-F)][Tle][Phe(4-Cl)][NMeF][dP][hSer](Me)[NMeA])) |  |  | 
9 | 25 to 50 | 50 to 100 | COCC[C@@H]1NC(=O)[C@H]2CCCN2C(=O)[C@H](Cc2ccc(F)cc2)N(C)C(=O)[C@H](Cc2ccc(Cl)cc2)NC(=O)[C@H](C(C)(C)C)NC(=O)[C@H](Cc2ccc(F)cc2)NC(=O)[C@H](C)N(C)C(=O)[C@@H](C)N(C)C(=O)[C@H](Cc2cscn2)NC(=O)[C@H](C)N(C)C1=O [Compound 38, COCC[C@@H]1NC(=O)[C@H]2CCCN2C(=O)[C@H](Cc2ccc(F)cc2)N(C)C(=O)[C@H](CC2=CC=C(Cl)C=C2)NC(=O)[C@@H](NC(=O)[C@H](Cc2ccc(F)cc2)NC(=O)[C@H](C)N(C)C(=O)[C@@H](C)N(C)C(=O)[C@H](CC2=CSC=N2)NC(=O)[C@H](C)N(C)C1=O)C(C)(C)C] (cyclo([Ala(4-thiazolyl)][dNMeA][NMeA][Phe(4-F)][Tle][Phe(4-Cl)][NMePhe(4-F)][dP][hSer](Me)[NMeA])) |  |  | 
